According to patent publication US6964783B1, “Non-solid composition for local application” (Naturveda, priority 1999, dated 2005):

Test system: 0.4×0.4 cm wound
Test: Wound healing in shaved rats after local application
Type: in vivo
Conditions: 0.2 ml applied on wound
Description: 30 rats (IFFA-CREDO SPF weighing 200+/−20 g) were shaved (3×3 cm) on the right side of the back. A 0.4×0.4 cm wound was produced at the centre of the shaved area. 30 minutes after producing the small wound, the coagulated blood was removed and 0.2 ml of glycerine containing 3% Alchemilla vulgaris (preparation according to example 4) or 0.2 ml of pure glycerine (controls) were applied on ten animals. The ten other control rats received 0.2 ml of distilled water. The complete healing time and the healing index were determined each day for 10 days. The healing time was reduced by 48% with the treatment based on glycerine containing 3% Alchemilla vulgaris, with a healing index of 2.1 in the treated lot, compared to an index of 3.3 obtained with the control lot.
With glycerine alone, the healing time was reduced by 26% with a healing index of 2.7.

In the case of `OCC(O)CO` [glycerine alone, glycerine], the healing index (determined each day for 10 days, control lot 3.3) is reported as 2.7 and the “healing time reduced by” value (followed each day for 10 days, versus control lot) is reported as 26%.
